Measured values reported in patent US12102633B2, “Spirolactone compounds” (Quixgen, Inc., priority 2017, dated 2024).

Key:
Human sebocytes [1] = assay: Lipogenesis of human sebocytes; format: cell-based; conditions: 96 hours, nile red, read-out: LG-Sebo IC50
Method: Human sebocytes (Celprogen) were grown in collagen-coated 96-well culture microplate (White/Clear bottom, Coming BioCoat) with growth media till 100% confluency. Culture media was changed to growth media plus 100 μM arachidonic acid (Sigma) and 10 μM rosiglitazone (Tocris) with compounds prepared in DMSO (1:1000 dilution in growth media). Cells were treated with compounds for 96 hours with media containing compounds changed after 48 hours. Upon completion of treatment, cells were washed with 200 μL Phosphate Buffered Saline (PBS) and then fixed by adding 100 μL 4% formaldehyde (Sigma) and incubated at room temperature for 1 hour. Cells were then washed 3 times with PBS. Microplate was stained with 100 μL nile red solution prepared in PBS (2 mg/mL, 1:400 dilution) by incubating at 37° C. for 1 hour and then washed 3 times with PBS. The fluorescence was read at Ex 492 nm and Em 595 nm (TECAN SpectrofluorPlus). Effect of compounds on lipogenesis in sebocytes was calculated by % of DMSO vehicle control.

human ACC1 = biological target: T1, human ACC1 (Homo sapiens, UniProt Q13085); assay: Human ACC enzymatic activity assay (ACC1); format: biochemical; conditions: purified human ACC1; read-out: EA-CoA hACC 1 IC50
T1 construct: purchased BPS Bioscience
How it was run: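 Purified human ACC1 (0.4 μg/mL) or ACC2 (0.48 μg/mL) was preincubated with compound 10 min at 37° C in HEPES pH 7.5 with 4.0 mM ATP and 15 mM ^13C-NaHCO3. The reaction was started with 5 μM acetyl-CoA, run 1-2 h at 37° C and stopped with TCA. Labelled malonyl-CoA was quantified by LC-MS/MS.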

Human sebocytes [2] = assay: Cellular levels of malonyl-CoA in human sebocytes; format: cell-based; conditions: 0.5 h, 30 min incubation, read-out: Malonyl-CoA in Sebo IC50
Method: Shimadzu LC system was used for sample analysis consisting of system controller (Shimadzu CBM-20A), autosampler (Shimadzu SIL-20A), pump A and B (Shimadzu LC-20AD), column oven (Shimadzu CTO-20A), and analytical column (Phenomenex Gemini 5u C18 11A, 100×2 mm). LC was running at 200 μL/min in the binary gradient mode with mobile phase A (5 mM Ammonium Acetate and 5 mM DMBA in water (1,3-Dimethylbutylamine)) and B (methanol). The samples were analyzed on an AB Sciex QTrap4000 LC-MS/MS triple quadrupole mass spectrometer (Applied Biosystems). Malonyl-CoA and malonyl-13C-CoA were monitored in positive ion mode following MRM transitions at 854.2/347.1 and 855.1/246.1, respectively. The product and internal standard were coeluted to the mass spectrometer in 3 s with 50% H2O, 25% MeCN, 25% acetone, and 5 mM ammonium acetate. Ion chromatograms were integrated using the Analyst 1.5.2 software. Peak area ratios were compared against a standard curve and final cellular concentration of malonyl-CoA or production rate of malonyl-13C-CoA was calculated as pmoles/mg protein per minute.
Human sebocytes (Celprogen) were grown in growth media (DMEM with 4.5 g/L glucose, 0.584 g/L L-glutamine (Sigma), 100 units/mL of penicillin and 100 μg/mL of streptomycin (Gibco), 10% fetal bovine serum (Gibco)) at 37° C. in a humidified water jacketed incubator (Forma Scientific) supplemented with 5% CO2 till 100% confluency. Cells grown in 152 cm^2 cell culture dish (Corning) were trypsinized with 0.25% trypsin-EDTA (Gibco), centrifuged at 800 rpm for 10 min (Eppendorf) and resuspended in 4 mL growth media. To 1 μL serial diluted compounds in DMSO, 99 μL cells (around 0.5 million cells suspended in growth media) were added and mixed well followed by incubation in cell culture incubator for 30 min. Cells were then centrifuged at 800 rpm for 10 min and 70 μL 10% trichloroacetic acid was added to each well to lyse the cells and precipitate proteins. Cellular levels of malonyl-CoA were quantitated by LC-MS/MS.

IC50 (Human sebocytes [1]) [nM] | IC50 (human ACC1) [nM] | IC50 (Human sebocytes [2]) [nM] | SMILES
25 |  |  | COc1cc(C(=O)N2CCC3(CC2)Cc2ccc(C(C)C)cc2C(=O)O3)nc2c(OC)cccc12 [Example 2, 1′-(4,8-dimethoxyquinoline-2-carbonyl)-7-isopropylspiro[isochroman-3,4′-piperidin]-1-one]
 | 36.2 | 47.4 | COc1cc(C(=O)N2CCC3(CC2)Cc2ccc(Nc4ccnn4C)cc2C(=O)O3)nc2c(OC)cccc12 [Example 6, 1′-(4,8-dimethoxyquinoline-2-carbonyl)-7-((1-methyl-1H-pyrazol-5-yl)amino)spiro[isochroman-3,4′-piperidin]-1-one]
